pIC50: −log10 of the molar value.
What follows are compounds tested against Recombinant human PDK1 enzyme (aa 52-556) (Homo sapiens (Human), UniProt O15530) (assay: PDK1 kinase assay). Settings: in vitro kinase assay, His6-PDK1 (aa 52-556), PDKtide, P33-ATP.
Type: biochemical
Method: The activity of the compounds according to the invention on the kinase PDK1 which inhibits the signal transduction pathway is determined in an in vitro kinase assay with recombinantly prepared protein:
Recombinant human PDK1 enzyme (aa 52-556) linked at its N-terminal end to His6 is isolated from baculovirus-infected insect cells. Purified enzyme may be obtained for example from the University of Dundee, Scotland. The following components are combined in a well of a 96-well round-based dish (Greiner bio-one, No. 650101): • 15 μL of compound to be tested in varying concentrations (e.g. starting at 10 μM, and diluted in steps of 1:5) in APT buffer (50 mM Tris/Cl pH 7.5; 0.05% β-mercaptoethanol; 10 mM Mg-acetate; 0.0166% Tween 20; 3.33% DMSO) • 15 μL His6-PDK1 (aa 52-556) 3.33 ng/well) and PDKtide ([…]), synthesised by Pepceuticals Limited, Nottingham, United Kingdom; 25 μM final concentration); His6-PDK1 and PDKtide are together diluted accordingly in assay buffer (50 mM tris pH 7.5, 0.05% β-mercaptoethanol, 10 mM Mg-acetate); PDKtide is present in this mixture as an 83.3 μM solution. These 30 μl are routinely incubated for 30 min at RT. • 20 μL ATP solution (25 μM ATP with 1.0 μCi/well gamma-P33-ATP). The final concentration of Tween 20 is 0.005%.
The reaction is started by adding the ATP solution and the mixture is incubated for 90 min at RT. At the start of the reaction the dishes are shaken gently. The reaction is stopped by the addition of 50 μL/well of 500 mM phosphoric acid (H3PO4) and incubated for about 20 min at RT. The precipitate is transferred by harvesting onto filter plates (96-well microtitre filter plate: UniFilter GF/C; Perkin Elmer; No. 6005174), then washed 6 times with 50 mM H3PO4 and dried at 60° C. Then the plate is stuck down with sealing tape, 25 μL/well of scintillation solution (Microscint 0; Perkin Elmer; No. 6013611) are added and the amount of P33 precipitated is measured using the Wallac Betacounter. The measured data are evaluated using Graphpad Prism software.

Recombinant human PDK1 enzyme (aa 52-556), sequence (O15530 52-556): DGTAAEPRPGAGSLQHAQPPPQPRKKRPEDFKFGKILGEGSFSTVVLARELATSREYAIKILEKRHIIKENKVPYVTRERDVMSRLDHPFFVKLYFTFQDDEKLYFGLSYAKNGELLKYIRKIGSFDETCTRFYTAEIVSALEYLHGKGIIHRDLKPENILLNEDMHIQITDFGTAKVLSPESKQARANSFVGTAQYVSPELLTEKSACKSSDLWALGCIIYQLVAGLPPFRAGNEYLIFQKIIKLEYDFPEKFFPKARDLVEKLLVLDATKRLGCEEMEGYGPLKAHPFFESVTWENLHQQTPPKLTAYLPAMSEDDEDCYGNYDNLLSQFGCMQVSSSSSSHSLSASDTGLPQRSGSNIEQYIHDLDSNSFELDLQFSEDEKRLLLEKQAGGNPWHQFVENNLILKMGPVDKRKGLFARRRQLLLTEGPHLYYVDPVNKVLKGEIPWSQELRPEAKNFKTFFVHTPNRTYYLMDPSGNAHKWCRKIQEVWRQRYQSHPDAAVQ

Row | pIC50 | SMILES
1 | 7.19 | C=C(C)c1cnc2ccc(C#CCNC(=O)c3cncn(Cc4ccc(F)c(F)c4)c3=O)cc2n1 [I-69]
2 | 9.00 | CN1CCC(Nc2cnc3ccc(C#CCNC(=O)c4cncn(Cc5ccc(F)c(F)c5)c4=O)cc3c2)CC1 [I-70]
3 | 8.40 | CCN1CCC(Nc2cnc3ccc(C#CCNC(=O)c4cncn(Cc5ccc(F)c(F)c5)c4=O)cc3c2)CC1 [I-71]
4 | 8.70 | CCN1CCC(Nc2cnc3ccc(C#CCNC(=O)c4cccn(Cc5ccc(F)c(F)c5)c4=O)cc3c2)CC1 [I-72]
5 | 8.40 | COCCN1CCC(Nc2cnc3ccc(C#CCNC(=O)c4cncn(Cc5ccc(F)c(F)c5)c4=O)cc3c2)CC1 [I-73]
6 | 8.10 | COCCN1CCC(Nc2cnc3ccc(C#CCNC(=O)c4cccn(Cc5ccc(F)c(F)c5)c4=O)cc3c2)CC1 [I-74]
7 | 9.00 | CCN1CCC(Nc2cnc3ccc(C#CCNC(=O)c4cccn([C@@H](C)c5ccc(F)c(F)c5)c4=O)cc3c2)CC1 [I-75]
8 | 8.70 | CCN1CCC(Nc2cnc3ccc(C#CCNC(=O)c4cccn([C@H](CO)c5cccc(F)c5)c4=O)cc3c2)CC1 [I-76]
9 | 8.40 | COCCN1CCC(Nc2cnc3ccc(C#CCNC(=O)c4cccn([C@@H](CO)c5ccc(F)c(F)c5)c4=O)cc3c2)CC1 [I-77]
10 | 8.05 | COCCN1CCC(Nc2cnc3ccc(C#CCNC(=O)c4cccn([C@@H](C)c5ccc(F)c(F)c5)c4=O)cc3c2)CC1 [I-78]
11 | 7.10 | Cc1c(C#CCNC(=O)c2cncn(Cc3ccc(F)c(F)c3)c2=O)ccc2ncc(-c3ccccc3)cc12 [I-79]
12 | 6.88 | O=C(NCC#Cc1ccc2ncccc2c1)c1cncn(Cc2ccc(F)c(F)c2)c1=O [I-80]
13 | 7.18 | O=C(NCC#Cc1ccc2ncc(-c3ccccc3)cc2c1)c1cncn(Cc2ccc(F)c(F)c2)c1=O [I-81]
14 | 6.92 | COC(=O)c1cnc2ccc(C#CCNC(=O)c3cncn(Cc4ccc(F)c(F)c4)c3=O)c(C)c2c1 [I-82]
15 | 7.21 | Cc1c(C#CCNC(=O)c2cncn(Cc3ccc(F)c(F)c3)c2=O)ccc2ncc(C(=O)O)cc12 [I-83]
16 | 7.07 | O=C(NCC#Cc1ccc2ncc(O)cc2c1)c1cncn(Cc2ccc(F)c(F)c2)c1=O [I-86]
17 | 7.64 | O=C(NCC#Cc1ccc2ncc(OC3CCNCC3)cc2c1)c1cncn(Cc2ccc(F)c(F)c2)c1=O [I-87]
18 | 7.82 | CN(C)CCCOc1ccnc2ccc(C#CCNC(=O)c3cncn(Cc4ccc(F)c(F)c4)c3=O)cc12 [I-88]
19 | 7.64 | CN(C)CCCN(C)c1ccnc2ccc(C#CCNC(=O)c3cncn(Cc4ccc(F)c(F)c4)c3=O)cc12 [I-89]
20 | 6.96 | CN(C)c1ccnc2ccc(C#CCNC(=O)c3cncn(Cc4ccc(F)c(F)c4)c3=O)cc12 [I-90]
21 | 7.42 | COc1ccnc2ccc(C#CCNC(=O)c3cncn(Cc4ccc(F)c(F)c4)c3=O)cc12 [I-91]
22 | 7.48 | CCOc1ccnc2ccc(C#CCNC(=O)c3cncn(Cc4ccc(F)c(F)c4)c3=O)cc12 [I-95]
23 | 7.42 | CC(C)Oc1ccnc2ccc(C#CCNC(=O)c3cncn(Cc4ccc(F)c(F)c4)c3=O)cc12 [I-97]
24 | 7.44 | CN(C)CCOc1ccnc2ccc(C#CCNC(=O)c3cncn(Cc4ccc(F)c(F)c4)c3=O)cc12 [I-99]
25 | 7.85 | CN1CCN(CCCOc2ccnc3ccc(C#CCNC(=O)c4cncn(Cc5ccc(F)c(F)c5)c4=O)cc23)CC1 [I-100]

Row | pIC50 | SMILES
26 | 8.30 | CN1CCCC(COc2ccnc3ccc(C#CCNC(=O)c4cccn(Cc5ccc(F)c(F)c5)c4=O)cc23)C1 (centres unmarked) [I-101]
27 | 7.89 | CN(C)CC(C)(C)COc1ccnc2ccc(C#CCNC(=O)c3cncn(Cc4ccc(F)c(F)c4)c3=O)cc12 [I-102]
28 | 7.48 | CN(C)CC(C)(C)COc1ccnc2ccc(C#CCNC(=O)c3cccn(Cc4ccc(F)c(F)c4)c3=O)cc12 [I-103]
29 | 7.15 | CN(C)CC(O)COc1ccnc2ccc(C#CCNC(=O)c3cncn(Cc4ccc(F)c(F)c4)c3=O)cc12 (centres unmarked) [I-104]
30 | 6.92 | CN1CCC(Oc2ccnc3ccc(C#CCNC(=O)c4cncn(Cc5ccc(F)c(F)c5)c4=O)cc23)C1 (centres unmarked) [I-106]
31 | 6.94 | O=C(NCC#Cc1ccc2nccc(OCC3CCCCO3)c2c1)c1cncn(Cc2ccc(F)c(F)c2)c1=O (centres unmarked) [I-108]
32 | 7.54 | CN1CCC(Oc2ccnc3ccc(C#CCNC(=O)c4cncn(Cc5ccc(F)c(F)c5)c4=O)cc23)CC1 [I-111]
33 | 7.82 | O=C(NCC#Cc1ccc2nccc(OC3CCNCC3)c2c1)c1cncn(Cc2ccc(F)c(F)c2)c1=O [I-113]
34 | 6.11 | O=C(NCC#Cc1ccc2nccc(NC3CC3)c2c1)c1cncn(Cc2ccc(F)c(F)c2)c1=O [I-115]
35 | 6.00 | CN(C)CCNc1ccnc2ccc(C#CCNC(=O)c3cncn(Cc4ccc(F)c(F)c4)c3=O)cc12 [I-117]
36 | 6.26 | CN(C)CCCNc1ccnc2ccc(C#CCNC(=O)c3cncn(Cc4ccc(F)c(F)c4)c3=O)cc12 [I-119]
37 | 6.81 | O=C(NCC#Cc1ccc2nccc(OCC3CCCO3)c2c1)c1cncn(Cc2ccc(F)c(F)c2)c1=O (centres unmarked) [I-121]
38 | 8.52 | O=C(NCC#Cc1ccc2nccc(OCC3CCNC3)c2c1)c1cncn(Cc2ccc(F)c(F)c2)c1=O (centres unmarked) [I-122]
39 | 8.70 | O=C(NCC#Cc1ccc2nccc(OCC3CCCNC3)c2c1)c1cncn(Cc2ccc(F)c(F)c2)c1=O (centres unmarked) [I-123]
40 | 8.70 | CC(c1ccc(F)c(F)c1)n1cccc(C(=O)NCC#Cc2ccc3nccc(OCCCN(C)C)c3c2)c1=O (centres unmarked) [I-124]
41 | 8.52 | CC(c1cc(F)c(F)c(F)c1)n1cccc(C(=O)NCC#Cc2ccc3nccc(OC[C@@H]4CCN(C)C4)c3c2)c1=O (some centres unmarked) [I-125.1]
42 | 8.30 | CN(C)CCCCOc1ccnc2ccc(C#CCNC(=O)c3cncn(Cc4ccc(F)c(F)c4)c3=O)cc12 [I-125.3]
43 | 7.92 | O=C(NCC#Cc1ccc2nccc(OCC3CCOC3)c2c1)c1cccn(C(CO)c2ccc(F)c(F)c2)c1=O (centres unmarked) [I-125.4]
44 | 7.59 | O=C(NCC#Cc1ccc2nccc(OCC3CCOCC3)c2c1)c1cncn(Cc2ccc(F)c(F)c2)c1=O [I-125.6]
45 | 8.70 | CN1CC[C@H](COc2ccnc3ccc(C#CCNC(=O)c4cccn(Cc5cc(F)c(F)c(F)c5)c4=O)cc23)C1 [I-125.9]
46 | 8.52 | CC(c1ccc(F)c(F)c1)n1cccc(C(=O)NCC#Cc2ccc3nccc(OC[C@H]4CCN(C)C4)c3c2)c1=O (some centres unmarked) [I-125.10]
47 | 8.40 | CC(c1cc(F)c(F)c(F)c1)n1cccc(C(=O)NCC#Cc2ccc3nccc(OC[C@H]4CCN(C)C4)c3c2)c1=O (some centres unmarked) [I-125.11]
48 | 8.22 | CN1CC[C@@H](COc2ccnc3ccc(C#CCNC(=O)c4cccn(Cc5cc(F)c(F)c(F)c5)c4=O)cc23)C1 [I-125.12]
49 | 8.22 | CCN(CC)CCCOc1ccnc2ccc(C#CCNC(=O)c3cncn(Cc4ccc(F)c(F)c4)c3=O)cc12 [I-125.13]

Row | SMILES | pIC50
50 | COc1ccnc2ccc(C#CCNC(=O)c3cccn(Cc4ccc(F)c(F)c4)c3=O)cc12 [I-92] | 6.89
51 | CN(C)CCCOc1ccnc2ccc(C#CCNC(=O)c3cccn(Cc4ccc(F)c(F)c4)c3=O)cc12 [I-93] | 7.92
52 | CCOc1ccnc2ccc(C#CCNC(=O)c3cccn(Cc4ccc(F)c(F)c4)c3=O)cc12 [I-94] | 7.26
53 | CN(C)CCOc1ccnc2ccc(C#CCNC(=O)c3cccn(Cc4ccc(F)c(F)c4)c3=O)cc12 [I-98] | 7.60
54 | CN(C)CC(O)COc1ccnc2ccc(C#CCNC(=O)c3cccn(Cc4ccc(F)c(F)c4)c3=O)cc12 (centres unmarked) [I-105] | 7.33
55 | CN1CCC(Oc2ccnc3ccc(C#CCNC(=O)c4cccn(Cc5ccc(F)c(F)c5)c4=O)cc23)C1 (centres unmarked) [I-107] | 6.67
56 | O=C(NCC#Cc1ccc2nccc(OCC3CCCCO3)c2c1)c1cccn(Cc2ccc(F)c(F)c2)c1=O (centres unmarked) [I-109] | 6.78
57 | COC(C)CCOc1ccnc2ccc(C#CCNC(=O)c3cccn(Cc4ccc(F)c(F)c4)c3=O)cc12 (centres unmarked) [I-110] | 6.86
58 | CN1CCC(Oc2ccnc3ccc(C#CCNC(=O)c4cccn(Cc5ccc(F)c(F)c5)c4=O)cc23)CC1 [I-112] | 7.15
59 | O=C(NCC#Cc1ccc2nccc(OC3CCNCC3)c2c1)c1cccn(Cc2ccc(F)c(F)c2)c1=O [I-114] | 7.64
60 | O=C(NCC#Cc1ccc2nccc(NC3CC3)c2c1)c1cccn(Cc2ccc(F)c(F)c2)c1=O [I-116] | 6.00
61 | CN(C)CCNc1ccnc2ccc(C#CCNC(=O)c3cccn(Cc4ccc(F)c(F)c4)c3=O)cc12 [I-118] | 6.07
62 | CN(C)CCCNc1ccnc2ccc(C#CCNC(=O)c3cccn(Cc4ccc(F)c(F)c4)c3=O)cc12 [I-120] | 6.18
63 | CN(C)CCCOc1ccnc2ccc(C#CCNC(=O)c3cccn(Cc4cc(F)c(F)c(F)c4)c3=O)cc12 [I-125.2] | 8.30
64 | CC(N)CCOc1ccnc2ccc(C#CCNC(=O)c3cccn(Cc4ccc(F)c(F)c4)c3=O)cc12 (centres unmarked) [I-125.7] | 7.49
65 | O=C(NCC#Cc1ccc2nccc(OCC3CCCOC3)c2c1)c1cccn(Cc2ccc(F)c(F)c2)c1=O (centres unmarked) [I-125.8] | 7.34

Source: patent US8575203B2, “Chemical compounds” (Boehringer Ingelheim International GmbH, priority 2010, dated 2013)
